Experimental findings from patent publication US8933029B2, “Antimicrobial and anti-inflammatory peptides” (Carrus Capital Corporation, priority 2001, dated 2015) are described below.

In test [1] the test system is oxazolone contact hypersensitivity (ear inflammation). Description: Oxazolone contact hypersensitivity model. The class given is in vivo, CD-1 mice. Particulars: Dosage of 0.1%, applied to ear one hour after oxazolone challenge, ear punch weight after 24 h, 70% EtOH/30% propylene glycol vehicle. The protocol:
Briefly, a 3.0% (w/v) solution of oxazolone in acetone/corn oil (5:1) is applied topically to the skin on the shaved abdomens of mice of approximately the same weight and approximately the same age on day 0. […] Twenty-four hours later a dermal biopsy punch of the treated ear is taken and weighed.
CD-1 mice are treated with 3% oxazolone (Sigma) (30 mg/ml) in corn oil:acetone on a shaved abdomen. All solutions are sonicated for 7 minutes. Five days later, the mice are challenged with a 2% oxazolone (20 mg/ml) in acetone on the left ear, with the right ear being left untreated (control). One hour after challenge, the candidate peptide in a 70% EtOH/30% propylene glycol formulation (vehicle) was applied to the left ear, with the right ear being left untreated. After 24 h, 7 mm ear punches are taken from each ear of the mice. The ear punches are placed on a scale and the difference between the treated and untreated ears were compared. The percent inhibition of inflammation was calculated by comparing the mean of each treated group to the control group. The positive control is hydrocortisone (a known anti-inflammatory agent). Most of the indolicidin peptides inhibited inflammation as well as hydrocortisone.

For test [2], the system named is TPA-induced ear edema. Description: TPA ear edema model. The following applies: for Topical Dose (% change vs. vehicle) 0.1%: topical 0.1%; for Topical Dose (% change vs. vehicle) 0.1% / Topical Dose (% change vs. vehicle) 1.0% / Topical Dose (% change vs. vehicle) 5 0%: ear biopsy weight six hours after TPA; for Topical Dose (% change vs. vehicle) 1.0%: topical 1.0%; for Topical Dose (% change vs. vehicle) 5 0%: topical 5 0%.

Test [3] has as its system TNFα. Put plainly: Inhibition of cytokine production in PHA-activated PBLs (ELISA). The class given is cell-based. Particulars: human PBLs, 10 μg/ml PHA, 48 hours, supernatant ELISA. The protocol:
(§1) Briefly, human PBLs are collected from a subject and plated at 10^6 cells/ml in serum free lymphocyte growth medium, stimulated with 10 μg/ml phytohemagglutinin (PHA) in the presence or absence of the candidate peptide. The PBLs are incubated at 37° C. at 5% CO2 for 48 h, at which point the supernatants were collected. An ELISA is performed on the supernatants to detect a cytokine of interest (e.g., IL-1, TNF-α, IFN-γ) and the cells are incubated for another 72 h to measure proliferation (see, e.g., Sigusch et al., J. Periodontol. 69:1098, 1998).
(§2) Human peripheral blood lymphocytes (PBLs) were collected from a healthy adult […] and plated at 10^6 cells/ml in serum free lymphocyte growth media in a 96-well plate. The PBLs were stimulated with 10 μg/ml PHA in the presence or absence of test sample and incubated at 37° C. at 5% CO2 for 48 hours. Collected and pooled supernatants were stored at −20° C., then assayed with commercially available ELISA kits (Endogen and Biosource) and assayed for viability with LDH (Bochringer Mannheim). The cells remaining after supernatant removal were returned to the incubator and proliferation was determined at 72 hours by using AlamarBlue (Alamar Bioscience). Compounds were tested at 1, 10, 100 and 1000 μg/ml. The peptides were effective at inhibiting cytokine production and PBL proliferation (Table 4), which indicates these peptides can function as anti-inflammatory agents.

For test [4], the system named is IL-4. The description is as above. The class given is cell-based. Particulars: human PBLs, 10 μg/ml PHA, 48 hours, supernatant ELISA. The protocol:
as §1, §2

Test [5] relates to IL-1α. The test is described as above. The following applies: human PBLs, 10 μg/ml PHA, 48 hours, supernatant ELISA. The class given is cell-based. On the procedure:
as §1, §2
Background: ELISA stands for enzyme-linked immunosorbent assay.

The test system of test [6] is IFNγ. The test is described as above. Particulars: human PBLs, 10 μg/ml PHA, 48 hours, supernatant ELISA. The class given is cell-based. On the procedure: as §1, §2
For test [7], the system named is IL-2. Described as above. The class given is cell-based. The following applies: human PBLs, 10 μg/ml PHA, 48 hours, supernatant ELISA. On the procedure:
as §1, §2

Test [8] concerns IL-6. The test is described as above. The class given is cell-based. Particulars: human PBLs, 10 μg/ml PHA, 48 hours, supernatant ELISA. On the procedure:
as §1, §2

The subject of test [9] is IL-10. The description is as above. The class given is cell-based. The following applies: human PBLs, 10 μg/ml PHA, 48 hours, supernatant ELISA. On the procedure: as §1, §2
Test [10] deals with IL-12. The description is as above. The class given is cell-based. Particulars: human PBLs, 10 μg/ml PHA, 48 hours, supernatant ELISA. On the procedure:
as §1, §2

[11] abbreviates: formulated in 50% ethanol/5 mM lactate buffer (*).

Marks after values point to notes of the source that are not given here. Ends that are not written are not given here.

Regarding `C[C@]12CCC(=O)C=C1CC[C@@H]1[C@@H]2[C@@H](O)C[C@@]2(C)[C@H]1CC[C@]2(O)C(=O)CO` [Hydrocortisone, hydrocortisone, reference compound], the “% Inhibition of Inflammation” value in test [1] was 84.92%.

As for “R L W V W W V W (RLWVWWVW-{CN}) [Peptide 11F11CN]”, in test [2] (setting [11]), the “Topical Dose (% change vs. vehicle) 0.1%” value is −49* % and the “Topical Dose (% change vs. vehicle) 1.0%” value is reported as −75* %. Besides, the “Topical Dose (% change vs. vehicle) 1.0%” value in test [2] (formulated in 95% ethanol) is given as −87%.

Regarding “R L W W Q Q W W R R (RLWWQQWWRR-{CN}) [Peptide 11F60CN]”, in [2] (formulated in 95% ethanol), the “Topical Dose (% change vs. vehicle) 1.0%” value is −41%.

For the compound “RLVVWVVWRR-NH2 [Peptide 11F66CN, R L V V W V V W R R]”, in [2] (setting [11]), the “Topical Dose (% change vs. vehicle) 0.1%” value is recorded as −17* %, the “Topical Dose (% change vs. vehicle) 1.0%” value is reported as −64* % and the “Topical Dose (% change vs. vehicle) 5 0%” value is −81* %. Moreover, the “% Inhibition of Inflammation” value in test [1] came out at 79.85%. Further, the “IC50 TNFα” value in test [3] is 110 µg/mL. In [4], the “IC50 IL-4” value was >1000 µg/mL. For the same compound, the “IC50 IL-1α” value in [5] is >1000 µg/mL. Besides, the “IC50 IFNγ” value in [6] came out at 125 µg/mL. Further, the “IC50 IL-2” value in test [7] turned out to be 480 µg/mL. Moreover, the “IC50 IL-6” value in test [8] is 1 µg/mL. For the same compound, the “IC50 IL-10” value in test [9] is 40 µg/mL. In test [10], the “IC50 IL-12” value is 280 µg/mL.

For RLVVWVVWRRX-OH [Peptide 11F110], in test [2] (setting [11]), the “Topical Dose (% change vs. vehicle) 0.1%” value is on record as −45* %, the “Topical Dose (% change vs. vehicle) 1.0%” value is given as −83* % and the “Topical Dose (% change vs. vehicle) 5 0%” value was −87* %.

For the compound “RLWVWWVWRR-NH2 [Peptide 11F17CN, R L W V W W V W R R]”, the “% Inhibition of Inflammation” value in test [1] was 71.60%. In test [3], the “IC50 TNFα” value was determined as 70 µg/mL. The “IC50 IL-4” value in test [4] came to 220 µg/mL. Moreover, in test [5], the “IC50 IL-1α” value worked out at 45 µg/mL. The “IC50 IFNγ” value in [6] worked out at 93 µg/mL. The “IC50 IL-2” value in [7] was >1000 µg/mL. In addition, the “IC50 IL-6” value in test [8] was found to be 500 µg/mL. The “IC50 IL-10” value in test [9] is 18 µg/mL. The “IC50 IL-12” value in test [10] was 120 µg/mL.

Take “RLWVWWVWRRK-NH2 [Peptide 11F12CN, R L W V W W V W R R K]”: in test [2] (formulated in 95% ethanol), the “Topical Dose (% change vs. vehicle) 1.0%” value is listed as −56%. Also, the “% Inhibition of Inflammation” value in test [1] came to 86.50%. In test [3], the “IC50 TNFα” value worked out at 68 µg/mL. Further, the “IC50 IL-4” value in [4] is 325 µg/mL. In addition, in [5], the “IC50 IL-1α” value came out at 500 µg/mL. In addition, the “IC50 IFNγ” value in test [6] was 250 µg/mL. Also, in test [7], the “IC50 IL-2” value was found to be 570 µg/mL. For the same compound, the “IC50 IL-6” value in test [8] is 140 µg/mL. In addition, in [9], the “IC50 IL-10” value was 30 µg/mL. Also, the “IC50 IL-12” value in test [10] was 120 µg/mL.

For “W (Dab) W W (Dab) P (Dab) W (Dab) W P (Dab) W [Peptide 11J68CN]”, in test [2] (setting [11]), the “Topical Dose (% change vs. vehicle) 1.0%” value is on record as −55* % and the “Topical Dose (% change vs. vehicle) 5 0%” value is −85* %.

Take “W (Orn) W W (Orn) P (Orn) W (Orn) W P (Orn) W [Peptide 11J67CN]”: in [2] (setting [11]), the “Topical Dose (% change vs. vehicle) 1.0%” value is −33* % and the “Topical Dose (% change vs. vehicle) 5 0%” value is −66* %.

Turning to “W R L L K L A L R L L K W (WRLLKLALRLLKW-{CN}) [Peptide 11J44CN]”, in test [2] (systemic 5 mg/kg), the “Systemic Dose (% change vs. vehicle) 5 mg/kg” value is on record as −32%. Further, the “Topical Dose (% change vs. vehicle) 1.0%” value in test [2] (formulated in 95% ethanol) is given as −88%.

Consider “WRWWKPKWRWPKW-NH2 [Peptide 11J02CN, W R W W K P K W R W P K W]”, for which, in [2] (formulated in 95% ethanol), the “Topical Dose (% change vs. vehicle) 1.0%” value was −44%. In addition, the “% Inhibition of Inflammation” value in test [1] is given as 58.12%. For the same compound, the “IC50 TNFα” value in test [3] is 34 µg/mL. For the same compound, the “IC50 IL-4” value in test [4] was 115 µg/mL. Also, in test [5], the “IC50 IL-1α” value was found to be 7 µg/mL. Also, the “IC50 IFNγ” value in test [6] is 45 µg/mL. Moreover, the “IC50 IL-2” value in test [7] was >1000 µg/mL. The “IC50 IL-6” value in [8] amounted to 510 µg/mL. The “IC50 IL-10” value in test [9] came out at 23 µg/mL. For the same compound, the “IC50 IL-12” value in test [10] was found to be 34 µg/mL.

Turning to “WRWWKVAWRWVKW-NH2 [Peptide 11J30CN, W R W W K V A W R W V K W]”, in [2] (formulated in 95% ethanol), the “Topical Dose (% change vs. vehicle) 1.0%” value was −26%. The “% Inhibition of Inflammation” value in test [1] amounted to 94.15%. In addition, the “IC50 TNFα” value in [3] was 36 µg/mL. Besides, the “IC50 IL-4” value in [4] was 65 µg/mL. Besides, the “IC50 IL-1α” value in test [5] is 25 µg/mL. Further, in test [6], the “IC50 IFNγ” value stood at 28 µg/mL. Also, the “IC50 IL-2” value in [7] was >1000 µg/mL. Besides, in [8], the “IC50 IL-6” value was 4 µg/mL. Also, in test [9], the “IC50 IL-10” value stood at 33 µg/mL. In addition, the “IC50 IL-12” value in test [10] came out at 26 µg/mL.

As to “Y R Y Y K P K Y R Y P K Y (YRYYKPKYRYPKY-{CN}) [Peptide 11J32CN]”, the “Topical Dose (% change vs. vehicle) 1.0%” value in test [2] (formulated in 95% ethanol) is recorded as −30%.
